Measured values published in patent US20080082038A1, “Medical Device including a Bioactive in a Non-ionic and an Ionic Form and Methods of Preparation Thereof” (Vance Products Incorporated, d/b/a/ Cook Urological …, priority 2006, published 2008).
Counter-ions that a name gives are not always drawn. Like-named read-outs stand apart in the source and are kept apart here.

What was measured:
[1] = Elution of deposited drug from imbibed stents in buffered saline solution (HPLC); type: physicochemical; conditions: for rate of elution of drug from imbibed polyurethane stent: polyurethane stent imbibed with the named form
Method: (§1) Stents, prepared as described in Example 1, are imbibed in 5% bupivacaine-HCl in water/ethanol for 20 minutes at 45° C.
The amount of drug deposited on the stent is determined by high performance liquid chromatography (HPLC). The rate of bupivacaine dissolution is determined by measuring the elution profiles using HPLC.
The solubility and thus the ratio of bupivacaine to bupivacaine-HCl was determined by the elution of the deposited drug in buffered saline solution (pH=7.4) mimicking a bodily fluid.

[2] = Solubility of bupivacaine free-base and salt in water and ethanol; type: physicochemical
Method: In water, the free-base (unionized form) of bupivacaine is much less soluble in water than the salt form (bupivacaine-HCl). A water suspension of free-base in water has a pH of 7.85. […] By lowering the pH, the ratio of protonated bupivacaine (ionized) to unprotonated bupivacaine (unionized) increases.
as §1

[3] = buffered saline solution pH=7.4

Compound	elution of the drug on day one and day two, ethanol solution relative to water solution [1, 3]	solubility of the deposited drug, ethanol deposition relative to water deposition [1, 3]	rate of elution of drug from imbibed polyurethane stent ([1]; listed as bupivacaine free-base)	solubility in aqueous solution relative to the bupivacaine-salt ([2]; aqueous solution)	pH of water suspension of free-base ([2]; suspension in water)	solubility ([2]; water, pH 7.85, water, thermodynamic from solid, read-out: solubility)	rate of elution of drug from imbibed polyurethane stent [1]	solubility ([2]; aqueous buffer, water, pH between 1.8 and 6, read-out: solubility (dissolved in water))	solubility ([2]; ethanol, organic solvent or mixture, read-out: solubility in ethanol)	solubility ([2]; water, read-out: solubility in water)
CCCCN1CCCCC1C(=O)Nc1c(C)cccc1C (stereo not shown) [bupivacaine]	approximately six times	close to six times greater	greatly reduced	at least two orders of magnitude less soluble	7.85	~0.25 mg/mL	–	–	–	–
CCCCN1CCCCC1C(=O)Nc1c(C)cccc1C (stereo not shown) [bupivacaine-HCl]	–	–	–	–	–	–	can elute more quickly	40 to 50 mg/mL	125 mg/mL	40 mg/mL
